Reference: patent US12545637B2, “Extrahepatic targeted cationic lipid compound with high efficiency and low toxicity and its composition” (BEIJING YOUCARE KECHUANG PHARMACEUTICAL TECHNOLOGY CO., LTD., priority 2023, dated 2026)

Key:
[1] = Particle size and polydispersity index (PDI) of lipid nanoparticles by dynamic light scattering; assay type: physicochemical
Experimental: The particle size and polydispersity index (PDI) were determined by dynamic light scattering using Malvern laser particle size analyzer.
10 μL of the liposome solution was weighed, diluted to 1 mL with RNase-free deionized water, and added to the sample pool. Each sample was measured in triplicate. The measurement conditions were: […] scattering angle, and 25° C.

[2] = Detection of encapsulation efficiency, drug loading concentration and total RNA concentration (RiboGreen); assay type: physicochemical
How it was run: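 Samples were diluted in 1×TE to about […], combined with TE and 0.1% Triton X-100 buffers, and held at 37 °C for 10 minutes before dye addition.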

female BALB/C mice = test: In vivo imaging in mice of Fluc-mRNA LNP formulations (mRNA expression and duration)
How it was run: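 Female BALB/C mice (4-6 weeks, 17-19 g) received LNP carrying […] Fluc-mRNA intramuscularly. At 6h, 24 h, 48h and 7d, fluorescent imaging substrate was given intraperitoneally and after 5 minutes average radiance, as a measure of expressed protein, was imaged on an IVIS Spectrum system.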

293T cells = test: Fluorescent detection of Fluc-mRNA (cell transfection efficiency of LNP formulations); assay type: cell-based
[3] = LNP formulation prepared from the cationic lipid

CCCCCCCCC(CCCCCCCC)OC(=O)CCCCCCCN(CCO)CCN(CCO)CCCCCCCC(=O)OC(CCCCCCCC)CCCCCCCC [YK-403, di(heptadecan-9-yl) 8, 8′-(ethane-1,2-diyl-bis((2-hydroxyethyl)azanediyl))dioctanoate]
PDI ([1]; LNP formulation of the cationic lipid, 25° C.): 16.5% | Particle size ([1]; LNP formulation of the cationic lipid/DSPC/cholesterol/DMG-PEG2000 49:10:39.5:1.5, 25° C.): 163 nm | Drug loading concentration [2, 3]: 34.21 µg/mL | Encapsulation efficiency [2, 3]: 87.9% | Total RNA concentration [2, 3]: 40.53 µg/mL | encapsulation efficiency higher than ALC-0315 ([2]; difference vs ALC-0315): 24.6% | encapsulation efficiency higher than HIMA ([2]; difference vs HIMA (HHMA)): 27.7% | encapsulation efficiency higher than SM-102 ([2]; difference vs SM-102): 25.0% | encapsulation efficiency higher than YK-009 ([2]; difference vs YK-009): 24.4% | encapsulation efficiency higher than compound 21 ([2]; difference vs compound 21): 29.9% | encapsulation efficiency higher than compound 23 ([2]; difference vs compound 23): 31.7% | drug loading concentration, times that of ALC-0315 ([2]; ratio vs ALC-0315): 1.27 | total RNA concentration, times that of ALC-0315 ([2]; ratio vs ALC-0315): 1.07 | drug loading concentration, times that of HIMA ([2]; ratio vs HIMA (HHMA)): 1.05 | total RNA concentration, times that of HIMA ([2]; ratio vs HIMA (HHMA)): 1.11 | drug loading concentration, times that of SM-102 ([2]; ratio vs SM-102): 1.29 | total RNA concentration, times that of SM-102 ([2]; ratio vs SM-102): 1.12 | drug loading concentration, times that of YK-009 ([2]; ratio vs YK-009): 1.24 | total RNA concentration, times that of YK-009 ([2]; ratio vs YK-009): 1.05 | drug loading concentration, times that of compound 21 ([2]; ratio vs compound 21): 1.56 | total RNA concentration, times that of compound 21 ([2]; ratio vs compound 21): 1.40 | drug loading concentration, times that of compound 23 ([2]; ratio vs compound 23): 1.71 | total RNA concentration, times that of compound 23 ([2]; ratio vs compound 23): 1.31 | average radiation intensity, times that of ALC-0315 (female BALB/C mice; 6 h): 1.89 | average radiation intensity, times that of HHMA (female BALB/C mice; 6 h): 2.40 | average radiation intensity, times that of SM-102 (female BALB/C mice; 6 h): 2.30 | average radiation intensity, times that of compound 21 (female BALB/C mice; 6 h): 2.65 | average radiation intensity, times that of compound 23 (female BALB/C mice; 6 h): 2.73 | expression amount in mice, times that of YK-415 (female BALB/C mice; 6 h): 13.48 | expression amount in mice, times that of YK-417 (female BALB/C mice; 6 h): 26.26 | mRNA expression in mice, times that of YK-411 (female BALB/C mice; 6 h): 271.52 | average radiation intensity, times that of ALC-0315 (female BALB/C mice; 24 h): 4.51 | average radiation intensity, times that of HHMA (female BALB/C mice; 24 h): 7.13 | average radiation intensity, times that of SM-102 (female BALB/C mice; 24 h): 6.93 | average radiation intensity, times that of compound 21 (female BALB/C mice; 24 h): 7.70 | average radiation intensity, times that of compound 23 (female BALB/C mice; 24 h): 8.47 | expression amount in mice, times that of YK-415 (female BALB/C mice; 24 h): 13.26 | expression amount in mice, times that of YK-417 (female BALB/C mice; 24 h): 42.79 | mRNA expression in mice, times that of YK-411 (female BALB/C mice; 24 h): 422.95 | average radiation intensity, times that of ALC-0315 (female BALB/C mice; 48 h): 7.69 | average radiation intensity, times that of HHMA (female BALB/C mice; 48 h): 9.25 | average radiation intensity, times that of SM-102 (female BALB/C mice; 48 h): 9.39 | average radiation intensity, times that of compound 21 (female BALB/C mice; 48 h): 9.78 | average radiation intensity, times that of compound 23 (female BALB/C mice; 48 h): 9.37 | expression amount in mice, times that of YK-415 (female BALB/C mice; 48 h): 19.54 | expression amount in mice, times that of YK-417 (female BALB/C mice; 48 h): 43.80 | mRNA expression in mice, times that of YK-411 (female BALB/C mice; 48 h): 316.45 | average radiation intensity, times that of ALC-0315 (female BALB/C mice; 7 d): 1.41 | average radiation intensity, times that of HHMA (female BALB/C mice; 7 d): 1.65 | average radiation intensity, times that of SM-102 (female BALB/C mice; 7 d): 1.47 | average radiation intensity, times that of compound 21 (female BALB/C mice; 7 d): 1.55 | average radiation intensity, times that of compound 23 (female BALB/C mice; 7 d): 1.61 | expression amount in mice, times that of YK-415 (female BALB/C mice; 7 d): 2.44 | expression amount in mice, times that of YK-417 (female BALB/C mice; 7 d): 4.32 | mRNA expression in mice, times that of YK-411 (female BALB/C mice; 7 d): 20.54 | average radiation intensity, 6 h (female BALB/C mice; Fluc-mRNA LNP intramuscular, 6 h after administration): 1588400 | average radiation intensity, 24 h (female BALB/C mice; Fluc-mRNA LNP intramuscular, 24 h after administration): 855204 | average radiation intensity, 48 h (female BALB/C mice; Fluc-mRNA LNP intramuscular, 48 h after administration): 308540 | average radiation intensity, 7 d (female BALB/C mice; Fluc-mRNA LNP intramuscular, 7 d after administration): 9857 | RLU value, times that of ALC-0315 (293T cells; ratio vs ALC-0315): 2.40 | RLU value, times that of HHMA (293T cells; ratio vs HHMA): 2.52 | RLU value, times that of Lipofectamine 3000 (293T cells; ratio vs Lipofectamine 3000): 4.37 | RLU value, times that of YK-009 (293T cells; ratio vs YK-009): 1.02 | RLU value, times that of YK-405 (293T cells; ratio vs YK-405): 1.64 | RLU value, times that of YK-406 (293T cells; ratio vs YK-406): 67.08 | RLU value, times that of YK-408 (293T cells; ratio vs YK-408): 3.56 | RLU value, times that of YK-409 (293T cells; ratio vs YK-409): 7.84 | RLU value, times that of YK-410 (293T cells; ratio vs YK-410): 12.87 | cell transfection efficiency, times that of YK-412 (293T cells; ratio vs YK-412): 1.56 | cell transfection efficiency, times that of YK-413 (293T cells; ratio vs YK-413): 3.81 | cell transfection efficiency, times that of YK-414 (293T cells; ratio vs YK-414): 11.82 | cell transfection efficiency, times that of YK-416 (293T cells; ratio vs YK-416): 1.32 | cell transfection efficiency, times that of YK-419 (293T cells; ratio vs YK-419): 1.66 | cell transfection efficiency, times that of YK-420 (293T cells; ratio vs YK-420): 1.31 | cell transfection efficiency, times that of YK-421 (293T cells; ratio vs YK-421): 11.25
